Measurements published in publication PMC4138103 (PLoS ONE, 2014).

System: Sprague-Dawley rats
Test: Hematology
Type: in vivo, Rattus norvegicus
Design: key to Dose response, MCH / Dose response, MCHC / Dose response, PLT / Dose response, MCV: D: significant dose response (for results, see Table 2); T: significant trend; HCT, Hematocrit: unit not given here
Conditions: for RBC, Red cell count / HCT, Hematocrit / Basophils / Eosinophils / HB, Hemoglobin / Lymphocytes / MCH, Mean corpuscular hemoglobin / MCHC, Mean corpuscular hemoglobin concentration / MCV, Mean corpuscular volume / MPV, Mean platelet volume / Monocytes / Neutrophils / PDW, Platelet distribution width / PLT, Platelet count / WBC, Leukocyte total count: group mean; for RBC, CED: adipose tissue concentration based
Description: Basic blood picture analysis was carried out using Advia 120 analyzer (Bayer, later Siemens Diagnostic Division, Dublin, Ireland). This analysis includes red cell count (RBC), hemoglobin (HB), hematocrit (HCT), platelet count (PLT), leukocyte total count (WBC) and differential count as well as the calculated red cell and platelet parameters mean corpuscular volume (MCV), mean corpuscular hemoglobin (MCH), mean corpuscular hemoglobin concentration (MCHC), red cell distribution width - standard deviation (RDW-SD), platelet distribution width (PDW) and mean platelet volume (MPV). Blood cell counting is based on isovolumetric sphering and fixing the cells, stains and light scattering. Visual leukocyte differential counting was done after May-Grünwald-Giemsa staining.
Data were also analyzed using the BMD method, which is based on dose-response modeling of the full data set using a nested family of exponential and Hill models. The analyses were done on data of males and females combined, using sex as a covariate. […] In that case, different Critical Effect Doses (CEDs) and CEDs at the lowest bound of the confidence interval (CED-L) were generated for each sex. If no difference between sexes is detected, a CED and CED-Ls for the combined data is generated. However, this was also done if the curve fits are close, and separate analyses for males and females were then performed manually. CEDs and CED-Ls were calculated at the predefined Critical Effect Size (CES) of 5% (EFSA standard) or 10%.

[1] = females, total doses 0-1700 mg/kg bw
[2] = females, CES 5%, total dose based
[3] = females, CES 10%, total dose based
[4] = males, total dose 3 mg/kg bw, N=5
[5] = males, total dose 10 mg/kg bw, N=5
[6] = males, total dose 30 mg/kg bw, N=5
[7] = males, total dose 100 mg/kg bw, N=5
[8] = males, total dose 300 mg/kg bw, N=5
[9] = males, total dose 300 mg/kg bw, N=5, p<0.01 vs. control
[10] = males, total dose 1000 mg/kg bw, N=5
[11] = males, total dose 1000 mg/kg bw, N=5, p<0.001 vs. control
[12] = males, total dose 1700 mg/kg bw, N=5
[13] = males, total dose 1700 mg/kg bw, N=5, p<0.001 vs. control
[14] = males, total doses 0-1700 mg/kg bw
[15] = males, CES 5%, total dose based
[16] = males, CES 10%, total dose based

SMILES: Clc1cc(Cl)c(-c2cc(Cl)c(Cl)c(Cl)c2Cl)cc1Cl [PCB 180, 2,2′,3′,4,4′,5,5′-heptachlorobiphenyl]
- RBC, Red cell count (females, total dose 1700 mg/kg bw, N=5, p<0.001 vs. control): 6.43e+12 L⁻¹
- HCT, Hematocrit (females, total dose 1700 mg/kg bw, N=5, p<0.01 vs. control): 0.41
- Dose response, HB [1]: D, T
- Dose response, HCT [1]: D, T
- Dose response, MCV [1]: T
- Dose response, RBC [1]: D, T
- Hematocrit, CED [2]: 832 mg/kg bw
- Hematocrit, CED-L [2]: 646 mg/kg bw
- Hemoglobin, CED [2]: 739 mg/kg bw
- Hemoglobin, CED-L [2]: 600 mg/kg bw
- Red blood cell count, CED [2]: 638 mg/kg bw
- Red blood cell count, CED-L [2]: 514 mg/kg bw
- Red cell distribution width - SD, CED [2]: 1400 mg/kg bw
- Red cell distribution width - SD, CED-L [2]: 1093 mg/kg bw
- Hematocrit, CED [3]: 1710 mg/kg bw
- Hematocrit, CED-L [3]: 1327 mg/kg bw
- Hemoglobin, CED [3]: 1520 mg/kg bw
- Hemoglobin, CED-L [3]: 1233 mg/kg bw
- Red blood cell count, CED [3]: 1310 mg/kg bw
- Red blood cell count, CED-L [3]: 1056 mg/kg bw
- Red cell distribution width - SD, CED [3]: 1650 mg/kg bw
- Red cell distribution width - SD, CED-L [3]: 1498 mg/kg bw
- RBC, CED (females): 4170 µg/g lipid
- Basophils [4]: 0.0%
- Eosinophils [4]: 0.6%
- HB, Hemoglobin [4]: 179 g/L
- HCT, Hematocrit [4]: 0.52
- Lymphocytes [4]: 87%
- MCH, Mean corpuscular hemoglobin [4]: 21.9 pg
- MCHC, Mean corpuscular hemoglobin concentration [4]: 346 g/L
- MCV, Mean corpuscular volume [4]: 63.4 fL
- MPV, Mean platelet volume [4]: 7.16 fL
- Monocytes [4]: 4.4%
- Neutrophils [4]: 8.0%
- PDW, Platelet distribution width [4]: 7.66 fL
- PLT, Platelet count [4]: 8.36e+11 L⁻¹
- RBC, Red cell count [4]: 8.18e+12 L⁻¹
- WBC, Leukocyte total count [4]: 1.896e+10 L⁻¹
- Basophils [5]: 0.2%
- Eosinophils [5]: 0.6%
- HB, Hemoglobin [5]: 171 g/L
- HCT, Hematocrit [5]: 0.49
- Lymphocytes [5]: 84.6%
- MCH, Mean corpuscular hemoglobin [5]: 22.02 pg
- MCHC, Mean corpuscular hemoglobin concentration [5]: 350 g/L
- MCV, Mean corpuscular volume [5]: 63.0 fL
- MPV, Mean platelet volume [5]: 6.96 fL
- Monocytes [5]: 4.4%
- Neutrophils [5]: 10.2%
- PDW, Platelet distribution width [5]: 7.54 fL
- PLT, Platelet count [5]: 8.27e+11 L⁻¹
- RBC, Red cell count [5]: 7.79e+12 L⁻¹
- WBC, Leukocyte total count [5]: 1.674e+10 L⁻¹
- Basophils [6]: 0.0%
- Eosinophils [6]: 0.6%
- HB, Hemoglobin [6]: 170 g/L
- HCT, Hematocrit [6]: 0.49
- Lymphocytes [6]: 87.8%
- MCH, Mean corpuscular hemoglobin [6]: 22 pg
- MCHC, Mean corpuscular hemoglobin concentration [6]: 349 g/L
- MCV, Mean corpuscular volume [6]: 63.1 fL
- MPV, Mean platelet volume [6]: 6.92 fL
- Monocytes [6]: 4.2%
- Neutrophils [6]: 7.4%
- PDW, Platelet distribution width [6]: 7.44 fL
- PLT, Platelet count [6]: 8.6e+11 L⁻¹
- RBC, Red cell count [6]: 7.73e+12 L⁻¹
- WBC, Leukocyte total count [6]: 1.7e+10 L⁻¹
- Basophils [7]: 0.0%
- Eosinophils [7]: 0.6%
- HB, Hemoglobin [7]: 170 g/L
- HCT, Hematocrit [7]: 0.48
- Lymphocytes [7]: 87.8%
- MCH, Mean corpuscular hemoglobin [7]: 22.18 pg
- MCHC, Mean corpuscular hemoglobin concentration [7]: 352 g/L
- MCV, Mean corpuscular volume [7]: 63.1 fL
- MPV, Mean platelet volume [7]: 7.28 fL
- Monocytes [7]: 4.4%
- Neutrophils [7]: 7.2%
- PDW, Platelet distribution width [7]: 7.90 fL
- PLT, Platelet count [7]: 8.93e+11 L⁻¹
- RBC, Red cell count [7]: 7.65e+12 L⁻¹
- WBC, Leukocyte total count [7]: 1.654e+10 L⁻¹
- Basophils [8]: 0.0%
- Eosinophils [8]: 1.0%
- HB, Hemoglobin [8]: 165 g/L
- Lymphocytes [8]: 85.8%
- MCH, Mean corpuscular hemoglobin [8]: 22.38 pg
- MCHC, Mean corpuscular hemoglobin concentration [8]: 351 g/L
- MCV, Mean corpuscular volume [8]: 63.8 fL
- MPV, Mean platelet volume [8]: 7.12 fL
- Monocytes [8]: 5.2%
- Neutrophils [8]: 8.0%
- PDW, Platelet distribution width [8]: 7.66 fL
- PLT, Platelet count [8]: 9.4e+11 L⁻¹
- WBC, Leukocyte total count [8]: 2.076e+10 L⁻¹
- HCT, Hematocrit [9]: 0.47
- RBC, Red cell count [9]: 7.38e+12 L⁻¹
- Basophils [10]: 0.0%
- Eosinophils [10]: 1.0%
- Lymphocytes [10]: 86.8%
- MCH, Mean corpuscular hemoglobin [10]: 22.94 pg
- MCV, Mean corpuscular volume [10]: 63.2 fL
- MPV, Mean platelet volume [10]: 7.04 fL
- Monocytes [10]: 3.6%
- Neutrophils [10]: 8.6%
- PDW, Platelet distribution width [10]: 7.60 fL
- PLT, Platelet count [10]: 8.85e+11 L⁻¹
- WBC, Leukocyte total count [10]: 1.798e+10 L⁻¹
- HCT, Hematocrit [11]: 0.44
- RBC, Red cell count [11]: 6.99e+12 L⁻¹
- MCHC, Mean corpuscular hemoglobin concentration (males, total dose 1000 mg/kg bw, N=5, p<0.01 vs. control): 364 g/L
- HB, Hemoglobin (males, total dose 1000 mg/kg bw, N=5, p<0.05 vs. control): 161 g/L
- Basophils [12]: 0.4%
- Eosinophils [12]: 0.4%
- Lymphocytes [12]: 87.2%
- MCH, Mean corpuscular hemoglobin [12]: 22.78 pg
- MCHC, Mean corpuscular hemoglobin concentration [12]: 355 g/L
- MCV, Mean corpuscular volume [12]: 64.2 fL
- MPV, Mean platelet volume [12]: 7.08 fL
- Monocytes [12]: 5.4%
- Neutrophils [12]: 6.6%
- PDW, Platelet distribution width [12]: 7.54 fL
- PLT, Platelet count [12]: 9.37e+11 L⁻¹
- WBC, Leukocyte total count [12]: 1.68e+10 L⁻¹
- HCT, Hematocrit [13]: 0.45
- RBC, Red cell count [13]: 6.99e+12 L⁻¹
- HB, Hemoglobin (males, total dose 1700 mg/kg bw, N=5, p<0.01 vs. control): 159 g/L
- Dose response, HB [14]: D, T
- Dose response, HCT [14]: D, T
- Dose response, MCH [14]: T
- Dose response, MCHC [14]: T
- Dose response, PLT [14]: T
- Dose response, RBC [14]: D, T
- Hematocrit, CED [15]: 140 mg/kg bw
- Hematocrit, CED-L [15]: 66.3 mg/kg bw
- Hemoglobin, CED [15]: 201 mg/kg bw
- Hemoglobin, CED-L [15]: 62.8 mg/kg bw
- Platelet count, CED [15]: 40.7 mg/kg bw
- Platelet count, CED-L [15]: 9.68 mg/kg bw
- Red blood cell count, CED [15]: 138 mg/kg bw
- Red blood cell count, CED-L [15]: 82.2 mg/kg bw
- Hematocrit, CED [16]: 481 mg/kg bw
- Platelet count, CED [16]: 143 mg/kg bw
- Red blood cell count, CED [16]: 436 mg/kg bw
- Red blood cell count, CED-L [16]: 252 mg/kg bw
- RBC, CED (males): 598 µg/g lipid
